{"source": "the supplement of paper PMC10307832", "experiment_in_all_cases": "relative viability (nuclei count vs DMSO), 5 days (fraction); higher = more cells survive", "key": {"UMC-11": {"tested_on": "UMC-11", "how_it_was_run": "(§1)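 Lung cancer cell lines were seeded in 1536-well plates and dosed by pin tool the next day, with either a single drug or a fixed anchor-drug dose combined with five library-drug doses (not always all listed) spaced in √10 steps. Five days later, one step fixed the cells and stained their nuclei (final 0.05% Triton X-100, 1% formaldehyde, 1 ug/ml Hoechst), and nuclei were counted on 4× images. Relative viability is the nuclei count in treated wells divided by the count in vehicle wells, and each value is the median of duplicate plates.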"}, "NCI-H1650": {"tested_on": "NCI-H1650", "how_it_was_run": "as §1"}, "H3255": {"tested_on": "H3255", "how_it_was_run": "as §1"}, "HCC-15": {"tested_on": "HCC-15", "how_it_was_run": "as §1"}, "201T": {"tested_on": "201T", "how_it_was_run": "as §1"}, "NCI-H322M": {"tested_on": "NCI-H322M", "how_it_was_run": "as §1"}, "NCI-H2023": {"tested_on": "NCI-H2023", "how_it_was_run": "as §1"}, "NCI-H3122": {"tested_on": "NCI-H3122", "how_it_was_run": "as §1"}, "NCI-H520": {"tested_on": "NCI-H520", "how_it_was_run": "as §1"}, "NCI-H2170": {"tested_on": "NCI-H2170", "how_it_was_run": "as §1"}, "NCI-H1734": {"tested_on": "NCI-H1734", "how_it_was_run": "as §1"}, "NCI-H1793": {"tested_on": "NCI-H1793", "how_it_was_run": "as §1"}, "NCI-H2347": {"tested_on": "NCI-H2347", "how_it_was_run": "as §1"}, "NCI-H647": {"tested_on": "NCI-H647", "how_it_was_run": "as §1"}, "PC-14": {"tested_on": "PC-14", "how_it_was_run": "as §1"}, "EPLC-272H": {"tested_on": "EPLC-272H", "how_it_was_run": "as §1"}, "LOU-NH91": {"tested_on": "LOU-NH91", "how_it_was_run": "as §1"}, "COR-L23": {"tested_on": "COR-L23", "how_it_was_run": "as §1"}, "NCI-H2405": {"tested_on": "NCI-H2405", "how_it_was_run": "as §1"}, "NCI-H1563": {"tested_on": "NCI-H1563", "how_it_was_run": "as §1"}}, "data": [{"smiles": "Cc1sc2c(c1C)C(c1ccc(Cl)cc1)=N[C@@H](CC(=O)OC(C)(C)C)c1nnc(C)n1-2", "note": "[JQ1] + CS(=O)(=O)CCNCc1ccc(-c2ccc3ncnc(Nc4ccc(OCc5cccc(F)c5)c(Cl)c4)c3c2)o1 [Lapatinib] (partner 2 µM)", "values": [{"measurement": "relative viability", "setting": "UMC-11; first compound 0.04 µM", "value": 0.876}, {"measurement": "relative viability", "setting": "UMC-11; first compound 0.1265 µM", "value": 0.757}, {"measurement": "relative viability", "setting": "UMC-11; first compound 0.4 µM", "value": 0.419}, {"measurement": "relative viability", "setting": "UMC-11; first compound 1.265 µM", "value": 0.255}, {"measurement": "relative viability", "setting": "UMC-11; first compound 4 µM", "value": 0.271}, {"measurement": "relative viability", "setting": "NCI-H1650; first compound 0.04 µM", "value": 0.704}, {"measurement": "relative viability", "setting": "NCI-H1650; first compound 0.1265 µM", "value": 0.469}, {"measurement": "relative viability", "setting": "NCI-H1650; first compound 0.4 µM", "value": 0.316}, {"measurement": "relative viability", "setting": "NCI-H1650; first compound 1.265 µM", "value": 0.204}, {"measurement": "relative viability", "setting": "NCI-H1650; first compound 4 µM", "value": 0.253}, {"measurement": "relative viability", "setting": "H3255; first compound 0.04 µM", "value": 0.226}, {"measurement": "relative viability", "setting": "H3255; first compound 0.1265 µM", "value": 0.251}, {"measurement": "relative viability", "setting": "H3255; first compound 0.4 µM", "value": 0.248}, {"measurement": "relative viability", "setting": "H3255; first compound 1.265 µM", "value": 0.169}, {"measurement": "relative viability", "setting": "H3255; first compound 4 µM", "value": 0.227}, {"measurement": "relative viability", "setting": "HCC-15; first compound 0.04 µM", "value": 0.778}, {"measurement": "relative viability", "setting": "HCC-15; first compound 0.4 µM", "value": 0.85}, {"measurement": "relative viability", "setting": "HCC-15; first compound 1.265 µM", "value": 0.655}, {"measurement": "relative viability", "setting": "HCC-15; first compound 4 µM", "value": 0.592}, {"measurement": "relative viability", "setting": "201T; first compound 0.04 µM", "value": 0.998}, {"measurement": "relative viability", "setting": "201T; first compound 0.1265 µM", "value": 0.51}, {"measurement": "relative viability", "setting": "201T; first compound 0.4 µM", "value": 0.974}, {"measurement": "relative viability", "setting": "201T; first compound 1.265 µM", "value": 0.724}, {"measurement": "relative viability", "setting": "201T; first compound 4 µM", "value": 0.548}, {"measurement": "relative viability", "setting": "NCI-H322M; first compound 0.04 µM", "value": 0.634}, {"measurement": "relative viability", "setting": "NCI-H322M; first compound 0.1265 µM", "value": 0.658}, {"measurement": "relative viability", "setting": "NCI-H322M; first compound 0.4 µM", "value": 0.572}, {"measurement": "relative viability", "setting": "NCI-H322M; first compound 1.265 µM", "value": 0.506}, {"measurement": "relative viability", "setting": "NCI-H322M; first compound 4 µM", "value": 0.467}, {"measurement": "relative viability", "setting": "NCI-H2023; first compound 0.04 µM", "value": 0.738}, {"measurement": "relative viability", "setting": "NCI-H2023; first compound 0.1265 µM", "value": 0.463}, {"measurement": "relative viability", "setting": "NCI-H2023; first compound 0.4 µM", "value": 0.443}, {"measurement": "relative viability", "setting": "NCI-H2023; first compound 1.265 µM", "value": 0.334}, {"measurement": "relative viability", "setting": "NCI-H2023; first compound 4 µM", "value": 0.258}, {"measurement": "relative viability", "setting": "NCI-H3122; first compound 0.04 µM", "value": 0.996}, {"measurement": "relative viability", "setting": "NCI-H3122; first compound 0.1265 µM", "value": 0.974}, {"measurement": "relative viability", "setting": "NCI-H3122; first compound 0.4 µM", "value": 0.981}, {"measurement": "relative viability", "setting": "NCI-H3122; first compound 1.265 µM", "value": 1.02}, {"measurement": "relative viability", "setting": "NCI-H3122; first compound 4 µM", "value": 0.876}, {"measurement": "relative viability", "setting": "NCI-H520; first compound 0.04 µM", "value": 0.874}, {"measurement": "relative viability", "setting": "NCI-H520; first compound 0.1265 µM", "value": 0.895}, {"measurement": "relative viability", "setting": "NCI-H520; first compound 0.4 µM", "value": 0.716}, {"measurement": "relative viability", "setting": "NCI-H520; first compound 1.265 µM", "value": 0.264}, {"measurement": "relative viability", "setting": "NCI-H520; first compound 4 µM", "value": 0.243}, {"measurement": "relative viability", "setting": "NCI-H2170; first compound 0.04 µM", "value": 0.258}, {"measurement": "relative viability", "setting": "NCI-H2170; first compound 0.1265 µM", "value": 0.252}, {"measurement": "relative viability", "setting": "NCI-H2170; first compound 0.4 µM", "value": 0.262}, {"measurement": "relative viability", "setting": "NCI-H2170; first compound 1.265 µM", "value": 0.229}, {"measurement": "relative viability", "setting": "NCI-H2170; first compound 4 µM", "value": 0.254}, {"measurement": "relative viability", "setting": "NCI-H1734; first compound 0.04 µM", "value": 1.08}, {"measurement": "relative viability", "setting": "NCI-H1734; first compound 0.1265 µM", "value": 0.908}, {"measurement": "relative viability", "setting": "NCI-H1734; first compound 0.4 µM", "value": 1.03}, {"measurement": "relative viability", "setting": "NCI-H1734; first compound 1.265 µM", "value": 0.657}, {"measurement": "relative viability", "setting": "NCI-H1734; first compound 4 µM", "value": 1.04}, {"measurement": "relative viability", "setting": "NCI-H1793; first compound 0.04 µM", "value": 0.617}, {"measurement": "relative viability", "setting": "NCI-H1793; first compound 0.1265 µM", "value": 0.776}, {"measurement": "relative viability", "setting": "NCI-H1793; first compound 0.4 µM", "value": 0.805}, {"measurement": "relative viability", "setting": "NCI-H1793; first compound 1.265 µM", "value": 0.652}, {"measurement": "relative viability", "setting": "NCI-H1793; first compound 4 µM", "value": 0.576}, {"measurement": "relative viability", "setting": "NCI-H2347; first compound 0.04 µM", "value": 0.934}, {"measurement": "relative viability", "setting": "NCI-H2347; first compound 0.1265 µM", "value": 0.623}, {"measurement": "relative viability", "setting": "NCI-H2347; first compound 0.4 µM", "value": 0.831}, {"measurement": "relative viability", "setting": "NCI-H2347; first compound 1.265 µM", "value": 0.701}, {"measurement": "relative viability", "setting": "NCI-H2347; first compound 4 µM", "value": 0.679}, {"measurement": "relative viability", "setting": "NCI-H647; first compound 0.04 µM", "value": 0.997}, {"measurement": "relative viability", "setting": "NCI-H647; first compound 0.1265 µM", "value": 0.509}, {"measurement": "relative viability", "setting": "NCI-H647; first compound 0.4 µM", "value": 0.439}, {"measurement": "relative viability", "setting": "NCI-H647; first compound 1.265 µM", "value": 0.104}, {"measurement": "relative viability", "setting": "NCI-H647; first compound 4 µM", "value": 0.0821}, {"measurement": "relative viability", "setting": "PC-14; first compound 0.04 µM", "value": 0.307}, {"measurement": "relative viability", "setting": "PC-14; first compound 0.1265 µM", "value": 0.245}, {"measurement": "relative viability", "setting": "PC-14; first compound 0.4 µM", "value": 0.352}, {"measurement": "relative viability", "setting": "PC-14; first compound 1.265 µM", "value": 0.284}, {"measurement": "relative viability", "setting": "PC-14; first compound 4 µM", "value": 0.211}, {"measurement": "relative viability", "setting": "EPLC-272H; first compound 0.04 µM", "value": 0.937}, {"measurement": "relative viability", "setting": "EPLC-272H; first compound 0.1265 µM", "value": 0.98}, {"measurement": "relative viability", "setting": "EPLC-272H; first compound 0.4 µM", "value": 0.994}, {"measurement": "relative viability", "setting": "EPLC-272H; first compound 1.265 µM", "value": 0.519}, {"measurement": "relative viability", "setting": "EPLC-272H; first compound 4 µM", "value": 0.5}, {"measurement": "relative viability", "setting": "LOU-NH91; first compound 0.04 µM", "value": 0.787}, {"measurement": "relative viability", "setting": "LOU-NH91; first compound 0.1265 µM", "value": 0.679}, {"measurement": "relative viability", "setting": "LOU-NH91; first compound 0.4 µM", "value": 0.624}, {"measurement": "relative viability", "setting": "LOU-NH91; first compound 1.265 µM", "value": 0.501}, {"measurement": "relative viability", "setting": "LOU-NH91; first compound 4 µM", "value": 0.392}, {"measurement": "relative viability", "setting": "COR-L23; first compound 0.04 µM", "value": 0.926}, {"measurement": "relative viability", "setting": "COR-L23; first compound 0.1265 µM", "value": 0.782}, {"measurement": "relative viability", "setting": "COR-L23; first compound 0.4 µM", "value": 0.942}, {"measurement": "relative viability", "setting": "COR-L23; first compound 1.265 µM", "value": 0.773}, {"measurement": "relative viability", "setting": "COR-L23; first compound 4 µM", "value": 0.623}, {"measurement": "relative viability", "setting": "NCI-H2405; first compound 0.04 µM", "value": 1.19}, {"measurement": "relative viability", "setting": "NCI-H2405; first compound 0.4 µM", "value": 1.12}, {"measurement": "relative viability", "setting": "NCI-H2405; first compound 1.265 µM", "value": 0.587}, {"measurement": "relative viability", "setting": "NCI-H2405; first compound 4 µM", "value": 0.485}, {"measurement": "relative viability", "setting": "NCI-H1563; first compound 0.04 µM", "value": 0.89}, {"measurement": "relative viability", "setting": "NCI-H1563; first compound 0.1265 µM", "value": 0.72}, {"measurement": "relative viability", "setting": "NCI-H1563; first compound 0.4 µM", "value": 0.662}, {"measurement": "relative viability", "setting": "NCI-H1563; first compound 1.265 µM", "value": 0.717}, {"measurement": "relative viability", "setting": "NCI-H1563; first compound 4 µM", "value": 0.771}]}]}
